Reference: patent US9840511B2, “2-(aryl or heteroaryl-)phenyl (AZA)benzofuran compounds for the treatment of hepatitis C” (BRISTOL-MYERS SQUIBB COMPANY, priority 2014, dated 2017)
Like-named read-outs stand apart in the source and are kept apart here.

Columns and labels:
[1] = test system: genotype 1b (Con-1) HCV replicon; experiment: HCV replicon luciferase assay; type: cell-based; settings: Hepatitis C virus, 72 h, Huh-7 cells, genotype 1b replicon, Renilla luciferase, 3 days incubation
Protocol: Cell lines. The cell lines used to evaluate compounds consist of a human hepatocyte derived cell line (Huh-7) that constitutively expresses a genotype 1b (Con-1) HCV replicon or a genotype 1b (Con-1) HCV replicon with an asparagine replacing the cysteine at amino acid 316, or a genotype 2a (JFH-1) replicon, containing a Renilla luciferase reporter gene. These cells were maintained in Dulbecco's modified Eagle medium (DMEM) containing 10% FBS, 100 U/mL penicillin/streptomycin and 1.0 mg/mL G418.
HCV replicon luciferase assay. To evaluate compound efficacy, titrated compounds were transferred to sterile 384-well tissue culture treated plates, and the plates were seeded with HCV replicon cells (50 μL at a density of 2.4×10^3 cells/well) in DMEM containing 4% FBS (final DMSO concentration at 0.5%). After 3 days incubation at 37° C., cells were analyzed for Renilla Luciferase activity using the EnduRen substrate (Promega cat #E6485) according to the manufacturer's directions. Briefly, the EnduRen substrate was diluted in DMEM and then added to the plates to a final concentration of 7.5 μM. The plates were incubated for at least 1 h at 37° C. then read on a Viewlux Imager (PerkinElmer) using a luminescence program. The 50% effective concentration (EC50) was calculated using the four-parameter logistic formula noted above.
Compound EC50 data is expressed as A:<100 nM; B=100-1000 nM; C>1000 nM).

[2] = extended dosing of the combination regimens; cited from earlier work
HCV = settings: combination therapy; cited from earlier work

Compound	EC50 ([1]; read-out: EC50 lb (class))	further results
CNC(=O)c1c(-c2ccc(-n3cncn3)cc2)oc2nc(CCC(F)(F)F)c(-c3cccc(C(=O)NC(C)(C)C)c3)cc12 [Compound 3007]	0.1 to 1 µM	–
CNC(=O)c1c(-c2ccc(-n3cnnc3C)cc2)oc2nc(CCC(F)(F)F)c(-c3cccc(C(=O)NC(C)(C)C)c3)cc12 [Compound 3003]	> 1 µM	EC50 ([1]; read-out: EC50 (uM) lb): 3.32 µM
CNC(=O)c1c(-c2ccc(-n3cnc(C)n3)cc2)oc2nc(CCC(F)(F)F)c(-c3cccc(C(=O)NC(C)(C)C)c3)cc12 [Compound 3004]	0.1 to 1 µM	–
CNC(=O)c1c(-c2ccc(-n3ccnn3)cc2)oc2nc(CCC(F)(F)F)c(-c3cccc(C(=O)NC(C)(C)C)c3)cc12 [Compound 3001]	< 0.1 µM	EC50 ([1]; read-out: EC50 (uM) lb): 0.035 µM
CCN(c1cc2oc(-c3ccc(-n4nccn4)cc3)c(C(=O)NC)c2cc1-c1cccc(C(=O)NC(C)(C)C)c1)S(C)(=O)=O [Compound 1003]	< 0.1 µM	–
CNC(=O)c1c(-c2ccc(F)cc2)oc2cc(N(CCO)S(C)(=O)=O)c(C3CC3)cc12 [HCV-796]	–	hepatic toxicity [2]: hepatic toxicity observed
CCN(c1cc2oc(-c3ccc(-n4ccnn4)cc3)c(C(=O)NC)c2cc1-c1cccc(C(=O)NC(C)(C)C)c1)S(C)(=O)=O [Compound 1002]	< 0.1 µM	EC50 ([1]; read-out: EC50 (uM) lb): 0.069 µM
alpha-interferon and ribavirin	–	sustained efficacy, share of patients (HCV): 40%
CNC(=O)c1c(-c2ccc(-n3cc(C)cn3)cc2)oc2nc(CCC(F)(F)F)c(-c3cccc(C(=O)NC(C)(C)C)c3)cc12 [Compound 3008]	> 1 µM	–
CNC(=O)c1c(-c2ccc(-n3cc(C(F)(F)F)cn3)cc2)oc2nc(-n3cc(C(F)(F)F)cn3)c(-c3cccc(C(=O)NC(C)(C)C)c3)cc12 [Compound 2002]	> 1 µM	–
CNC(=O)c1c(-c2ccc(-n3cnc(C)c3)cc2)oc2nc(CCC(F)(F)F)c(-c3cccc(C(=O)NC(C)(C)C)c3)cc12 [Compound 3009]	> 1 µM	–
CNC(=O)c1c(-c2ccc(-n3ncnc3C)cc2)oc2nc(CCC(F)(F)F)c(-c3cccc(C(=O)NC(C)(C)C)c3)cc12 [Compound 3002]	> 1 µM	–
CNC(=O)c1c(-c2ccc(-n3ccc(C)n3)cc2)oc2nc(CCC(F)(F)F)c(-c3cccc(C(=O)NC(C)(C)C)c3)cc12 [Compound 3010]	0.1 to 1 µM	EC50 ([1]; read-out: EC50 (uM) lb): 0.28 µM
CNC(=O)c1c(-c2ccc(-n3ccc(C(F)(F)F)n3)cc2)oc2nc(-n3ccc(C(F)(F)F)n3)c(-c3cccc(C(=O)NC(C)(C)C)c3)cc12 [Compound 2001]	0.1 to 1 µM	–
CNC(=O)c1c(-c2ccc(-n3ccnc3)cc2)oc2nc(CCC(F)(F)F)c(-c3cccc(C(=O)NC(C)(C)C)c3)cc12 [Compound 3006]	0.1 to 1 µM	–
CCN(c1cc2oc(-c3ccc(-n4cccn4)cc3)c(C(=O)NC)c2cc1-c1cccc(C(=O)NC(C)(C)C)c1)S(C)(=O)=O [Compound 1001]	< 0.1 µM	EC50 ([1]; read-out: EC50 (uM) lb): 0.017 µM
CNC(=O)c1c(-c2ccc(-c3ncccc3O)cc2)oc2nc(CCC(F)(F)F)c(-c3cccc(C(=O)NC(C)(C)C)c3)cc12 [Compound 4001]	0.1 to 1 µM	–
